As a reminder, the IC50 is the point on the concentration scale where inhibition reaches its midpoint. In general, GI50 refers to the concentration giving 50% growth inhibition.

The target of one test is HDAC2 (Homo sapiens, UniProt Q92769). In words: HDAC biochemical activity measurement (fluorescent substrate deacetylation). The settings on record: 37° C. 30 minutes.
Test [1] relates to A549 (human lung cancer cells). The test is described as follows: MTT cancer cell growth inhibition. The format is cell-based. To be noted: MTT. The gist of the method:
(§1)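 72 h exposure, final drug 10^−5–10^−10 M, triplicate wells; 1500 cells/well plated the day before; medium DMEM or 1640 + 10% FBS; 37° C./5% CO2. MTT (5 mg/ml stock) 4 h, DMSO solubilisation, A570 → % viability → GI50.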

Test [2] deals with Bel-7402 (human hepatoma cells). In words: MTT cancer cell growth inhibition. The format is cell-based. The settings on record: MTT, 72 hours incubation, Bel-7402 cells, read-out: GI50 Bel-7402. In short, it runs like this:
as §1

For test [3], the system named is DU145 (human prostate cancer cells). The test is described as follows: MTT cancer cell growth inhibition. The format is cell-based. The settings on record: MTT. In short, it runs like this: as §1
Test [4] concerns H1975 (non-small cell lung adenocarcinoma). In words: MTT cancer cell growth inhibition. The class given is cell-based. To be noted: MTT, 72 hours incubation, H1975 cells, read-out: GI50 H1975. The gist of the method:
as §1

Test [5] deals with HCC827 (human non-small cell lung cancer cells). In words: MTT cancer cell growth inhibition. The class given is cell-based. To be noted: MTT, 72 hours incubation, HCC827 cells, read-out: GI50 HCC827. In short, it runs like this: as §1
The test system of test [6] is K562 (human leukemia cells). The test is described as follows: MTT cancer cell growth inhibition. The settings on record: MTT, 72 hours incubation, K562 cells, read-out: GI50 K562. The class given is cell-based. The gist of the method:
as §1

The subject of test [7] is MCF-7 (human breast cancer cells). The test is described as follows: MTT cancer cell growth inhibition. The class given is cell-based. In short, it runs like this: as §1
The subject of test [8] is MOLT-4 (human acute lymphoblastic leukemia cells). The test is described as follows: MTT cancer cell growth inhibition. The class given is cell-based. The settings on record: MTT. The gist of the method:
as §1

The test system of test [9] is PANC-1 (Pac-1, human pancreatic cancer cells). In words: MTT cancer cell growth inhibition. The class given is cell-based. The settings on record: MTT. In short, it runs like this:
as §1

The subject of test [10] is U937 (human leukemia cells). The test is described as follows: MTT cancer cell growth inhibition. The class given is cell-based. To be noted: MTT. In short, it runs like this:
as §1

For test [11], the system named is lncap (prostate cancer cells). The test is described as follows: MTT cancer cell growth inhibition. To be noted: MTT. The class given is cell-based. In short, it runs like this: as §1
Another test has as its target T1, HDAC11 (Homo sapiens, UniProt Q96DB2).
T1 sequence (Q96DB2 1-347): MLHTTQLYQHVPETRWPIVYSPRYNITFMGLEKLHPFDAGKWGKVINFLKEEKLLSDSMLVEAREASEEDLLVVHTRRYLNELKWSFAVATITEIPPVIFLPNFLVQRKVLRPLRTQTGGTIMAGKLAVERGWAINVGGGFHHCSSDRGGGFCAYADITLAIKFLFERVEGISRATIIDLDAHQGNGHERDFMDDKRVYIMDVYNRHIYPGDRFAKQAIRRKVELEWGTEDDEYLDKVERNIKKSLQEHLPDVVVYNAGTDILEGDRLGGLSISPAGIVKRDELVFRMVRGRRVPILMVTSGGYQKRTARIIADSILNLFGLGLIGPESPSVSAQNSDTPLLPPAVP
The test is described as follows: HDAC biochemical activity measurement (fluorescent substrate deacetylation).

[12] abbreviates: Homo sapiens, A549, 72 h, A549 cells, 72 hours incubation, read-out: GI50 A54.
Where [13] appears, read: Homo sapiens, DU-145, 72 h, DU145 cells, 72 hours incubation, read-out: GI50 Du1.
Where [14] appears, read: Homo sapiens, MCF7, 72 h, MCF-7 cells, 72 hours incubation, read-out: GI50 MCF.
Where [15] appears, read: Homo sapiens, MOLT-4, 72 h, MOLT-4 cells, 72 hours incubation, read-out: GI50 Mol.
Setting [16] is: Homo sapiens, PANC-1, 72 h, PANC-1 cells, 72 hours incubation, read-out: GI50 PAN.
[17] abbreviates: Homo sapiens, U-937, 72 h, U937 cells, 72 hours incubation, read-out: GI50 U93.
Setting [18] is: Homo sapiens, LNCaP, 72 h, lncap cells, 72 hours incubation, read-out: GI50 lnca.
Setting [19] is: Homo sapiens, A549, 72 h, 72 hours, present invention, read-out: GI50 A549, a.
Setting [20] is: Homo sapiens, DU-145, 72 h, 72 hours, present invention, read-out: GI50 Du145, a.
Setting [21] is: Homo sapiens, MCF7, 72 h, 72 hours, present invention, read-out: GI50 MCF7, a.
The mark [22] stands for this setting: Homo sapiens, MOLT-4, 72 h, 72 hours, present invention, read-out: GI50 Molt-4, a.
Where [23] appears, read: Homo sapiens, PANC-1, 72 h, 72 hours, present invention, read-out: GI50 PANC-1, a.
[24] abbreviates: Homo sapiens, U-937, 72 h, 72 hours, present invention, read-out: GI50 U937, a.
[25] abbreviates: Homo sapiens, LNCaP, 72 h, 72 hours, present invention, read-out: GI50 lncap, a.
[26] abbreviates: read-out: IC50 HDAC11, HDAC11, 37° C. 30 minutes.

SMILES strings stand for the structures. Read-outs that look alike come from different tables or passages of the source.

HDAC2, sequence (Q92769 whole entry, species assumed): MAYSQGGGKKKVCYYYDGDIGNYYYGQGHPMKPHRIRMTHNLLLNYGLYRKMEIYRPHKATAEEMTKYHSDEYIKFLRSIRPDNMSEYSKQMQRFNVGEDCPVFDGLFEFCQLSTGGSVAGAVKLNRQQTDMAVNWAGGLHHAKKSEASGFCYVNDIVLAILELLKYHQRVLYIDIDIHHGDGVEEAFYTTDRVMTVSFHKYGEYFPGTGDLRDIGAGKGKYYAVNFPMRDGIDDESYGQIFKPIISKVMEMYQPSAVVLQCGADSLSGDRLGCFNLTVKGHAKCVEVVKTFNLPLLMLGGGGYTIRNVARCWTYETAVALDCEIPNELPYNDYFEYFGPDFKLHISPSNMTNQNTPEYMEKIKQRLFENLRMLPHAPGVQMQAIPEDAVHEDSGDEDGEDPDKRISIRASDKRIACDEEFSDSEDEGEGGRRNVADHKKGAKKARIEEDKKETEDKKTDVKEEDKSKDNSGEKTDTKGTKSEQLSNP
Experimental for HDAC2: The chemical activity of the compound is determined according to the degree of deacetylation inhibition of the HDAC enzyme. This experiment measured the degree of deacetylation related to tumor proliferation and metastasis of HDAC1, HDAC2, HDAC3, HDAC8, HDAC11 five subtypes HDAC enzymes. After the substrate containing an acetylated lysine side chain and HDAC enzyme are labeled with a fluorescent label, the fluorescent substrate is de acetyl. The fluorescent labeled substrate is cleaved by the enzyme, and the fluorescent substance is released, which generates 460 nm emission light under the excitation of 360 nm light.
HDAC substrate was diluted with reaction buffer to 200M (reaction concentration of 20M), the HDAC enzyme was diluted to the appropriate concentration, then added different concentrations of the test compounds and acted at 37° C. 30 minutes, and then added the same volume of 2-times concentration substrate developing solution (developer), incubated at room temperature for 15 minutes.

For the molecule `C/C=C1\NC(=O)c2ccc(SC)c(n2)CNC(=O)C[C@@H](/C=C/CCSC(=O)CCCCCCC)OC(=O)[C@H](Cc2ccccc2)NC1=O` [Compound 191], the IC50 against HDAC2 was 36 nM; against HDAC11 it was 85 nM. The GI50 in test [1] (setting [12]) stood at 70 nM; in test [2] (Homo sapiens, Bel-7402, 72 h), 51 nM; in test [3] (setting [13]) it was 40 nM; in [4] (Homo sapiens, NCI-H1975, 72 h) it was 32 nM; in test [5] (Homo sapiens, HCC827, 72 h), 49 nM; in [6] (Homo sapiens, K562, 72 h), 41 nM. The GI50 in [7] (setting [14]) came out at 170 nM; in test [8] (setting [15]), 50 nM; in [9] (setting [16]), 50 nM; in test [10] (setting [17]), 30 nM; in test [11] (setting [18]), 310 nM.

`C/C=C1\NC(=O)c2cccc(n2)CNC(=O)C[C@@H](/C=C/CCSC(=O)CCCCCCC)OC(=O)[C@H](Cc2cccc3ccccc23)NC1=O` [Compound 239]: the IC50 was found to be 56 nM against HDAC2 and 28 nM on HDAC11 (setting [26]). The GI50 came out at 10 nM in test [1] (setting [12]); 12 nM in [1] (setting [19]); 28 nM in test [2] (Homo sapiens, Bel-7402, 72 h); 1 nM in test [3] (setting [20]); 91 nM in test [4] (Homo sapiens, NCI-H1975, 72 h); 31 nM in test [5] (Homo sapiens, HCC827, 72 h). Moreover, the GI50 is 63 nM in test [6] (Homo sapiens, K562, 72 h); 19 nM in [7] (setting [21]); 10 nM in test [7] (setting [14]); 4 nM in [8] (setting [22]); 130 nM in test [9] (setting [23]); 130 nM in test [9] (setting [16]). For the same molecule, the concentration for 50% growth inhibition (GI50) in [10] (setting [24]) stood at 3 nM; in test [11] (setting [25]), 17 nM; in [11] (setting [18]), 10 nM.

As to `C/C=C1\NC(=O)c2cc(F)cc(n2)CNC(=O)C[C@@H](/C=C/CCSC(=O)CCCCCCC)OC(=O)[C@H](C)NC1=O` [Compound 61], the IC50 against HDAC2 came out at 38 nM; at HDAC11 (setting [26]), 83 nM. In addition, the GI50 in test [1] (Homo sapiens, A549, 72 h, 72 hours incubation, read-out: GI50 A54) worked out at 30 nM; in test [2] (Homo sapiens, Bel-7402, 72 h) it was 67 nM; in test [3] (Homo sapiens, DU-145, 72 h, 72 hours incubation, read-out: GI50 Du1), 30 nM; in test [4] (Homo sapiens, NCI-H1975, 72 h), 53 nM; in test [5] (Homo sapiens, HCC827, 72 h) it was 67 nM; in [6] (Homo sapiens, K562, 72 h), 34 nM. Also, the GI50 amounted to 90 nM in test [7] (Homo sapiens, MCF7, 72 h, 72 hours incubation, read-out: GI50 MCF); 30 nM in test [8] (Homo sapiens, MOLT-4, 72 h, 72 hours incubation, read-out: GI50 Mol); 60 nM in test [9] (Homo sapiens, PANC-1, 72 h, 72 hours incubation, read-out: GI50 PAN); 50 nM in test [10] (Homo sapiens, U-937, 72 h, 72 hours incubation, read-out: GI50 U93); 30 nM in [11] (Homo sapiens, LNCaP, 72 h, 72 hours incubation, read-out: GI50 lnca).

As to `C/C=C1\NC(=O)c2nc(cc(SC)n2)CNC(=O)C[C@@H](/C=C/CCSC(C)=O)OC(=O)[C@H](C(C)C)NC1=O` [Compound 216], the IC50 against HDAC2 turned out to be 33 nM; at HDAC11 (setting [26]), 81 nM. The GI50 in test [1] (A549 cells, 72 hours incubation, read-out: GI50 A54) came to 80 nM; in test [2], 23 nM; in test [3] (DU145 cells, 72 hours incubation, read-out: GI50 Du1) it was 20 nM; in test [4] it was 87 nM; in [5], 59 nM; in test [6], 56 nM. In addition, the GI50 in test [7] (MCF-7 cells, 72 hours incubation, read-out: GI50 MCF) stood at 50 nM; in test [8] (MOLT-4 cells, 72 hours incubation, read-out: GI50 Mol) it was 40 nM; in test [9] (PANC-1 cells, 72 hours incubation, read-out: GI50 PAN) it was 20 nM; in test [10] (U937 cells, 72 hours incubation, read-out: GI50 U93), 80 nM; in test [11] (lncap cells, 72 hours incubation, read-out: GI50 lnca), 10 nM.

In the case of `CCCCCCCC(=O)SCC/C=C/[C@@H]1CC(=O)NCc2cccc(n2)C(=O)NC(CC)C(=O)N[C@@H](C(C)C)C(=O)O1` (stereo partly shown) [Compound 245], the IC50 on HDAC2 was 74 nM; on HDAC11 (setting [26]), 126 nM. In addition, the GI50 in test [1] (setting [12]) is 110 nM; in test [1] (setting [19]), 110 nM; in [2] (Homo sapiens, Bel-7402, 72 h), 87 nM; in [3] (setting [13]) it was 130 nM; in test [3] (setting [20]), 130 nM; in test [4] (Homo sapiens, NCI-H1975, 72 h) it was 28 nM. For the same molecule, the GI50 amounted to 96 nM in test [5] (Homo sapiens, HCC827, 72 h); 83 nM in [6] (Homo sapiens, K562, 72 h); 41 nM in [7] (setting [21]); 40 nM in test [7] (setting [14]); 350 nM in [8] (setting [15]); 350 nM in test [8] (setting [22]). The GI50 in [9] (setting [23]) was 140 nM; in test [9] (setting [16]), 140 nM; in test [10] (setting [24]), 840 nM; in [10] (setting [17]), 840 nM; in [11] (setting [25]), 860 nM; in [11] (setting [18]), 860 nM.

Values taken from patent publication US10065990B2, “Cyclic peptide compound, and preparation method, pharmaceutical composition and use thereof” (HANGZHOU GUANYU BIO-MEDICAL CO., LTD, priority 2013, dated 2018).
